Results taken from EPA's ToxRefDB 2.

Tests used:
rat [1] = conditions: Prenatal developmental toxicity study, sprague dawley, Oral, Gavage/Intubation, dose end: 18 GD
rat [2] = conditions: Chronic toxicity, Oral, Diet, dose end: 53 week, group: systemic
rat [3] = conditions: Subchronic oral toxicity in rodents, sprague dawley, Feed, dose end: 13 week, group: systemic
dog [4] = conditions: Subchronic oral toxicity in nonrodent, beagle, Gavage/Intubation, dose end: 14 week, group: systemic
rat [5] = conditions: Combined chronic toxicity/carcinogenicity, sprague dawley, Oral, Feed, dose end: 105 week, group: systemic
dog [6] = conditions: Chronic toxicity; beagle; Oral; Gavage/Intubation; dose end: 53 week; group: systemic; systemic / in life observation / clinical signs / stiffness + systemic / in life observation / clinical signs / tremors + systemic / …
rat [7] = conditions: Multigenerational reproductive toxicity study, Sprague-Dawley, Oral, Feed, dose end: 2 generation
rat [8] = conditions: Prenatal developmental toxicity study, wistar, Oral, Gavage/Intubation, dose end: 15 GD
rat [9] = conditions: Subchronic oral toxicity in rodents, sprague dawley, Feed, dose end: 90 day, group: systemic
dog [10] = conditions: Chronic toxicity; beagle; Oral; Feed; dose end: 52 week; group: systemic; systemic / organ weight / kidney / absolute + systemic / organ weight / kidney / relative to body weight + systemic / pathology microscopic…
rat [11] = conditions: Prenatal developmental toxicity study, sprague dawley, Oral, Gavage/Intubation, dose end: 15 GD
rat [12] = conditions: Multigenerational reproductive toxicity study, sprague dawley, Oral, Feed, dose end: 2 generation
rat [13] = conditions: Combined chronic toxicity/carcinogenicity, sprague dawley, Oral, Feed, dose end: 24 month, group: systemic
mouse = conditions: Subchronic oral toxicity in rodents, cd1, Feed, dose end: 13 week, group: systemic
[14] = group: developmental, developmental / developmental malformation / bone / full supernumerary + developmental / developmental malformation / bone / incomplete …
[15] = group: maternal, systemic / in life observation / body weight / body weight gain
[16] = group: maternal, systemic / in life observation / body weight / body weight gain + systemic / in life observation / clinical signs / convulsions + systemic…
[17] = systemic / in life observation / clinical signs / locomotion + systemic / in life observation / clinical signs / motor activity + systemic…
[18] = systemic / in life observation / body weight / body weight + systemic / in life observation / clinical signs / emaciation + systemic / in …
[19] = systemic / pathology microscopic / brain / degeneration + systemic / pathology microscopic / skeletal muscle / atrophy + systemic / in life …
[20] = systemic / pathology microscopic / brain / degeneration + systemic / pathology microscopic / skeletal muscle / atrophy + systemic / …
[21] = systemic / in life observation / body weight / body weight + systemic / in life observation / body weight / body weight gain + systemic / in…
[22] = group: offspring, developmental / developmental malformation / limb / [other] + systemic / in life observation / clinical signs / tremors
[23] = group: parental, systemic / pathology microscopic / brain / degeneration + systemic / pathology microscopic / spinal cord / degeneration + systemic / in life…
[24] = group: reproductive, reproductive / reproductive performance / fertility / fertility
[25] = group: developmental, systemic / in life observation / body weight / fetal weight
[26] = group: maternal, systemic / in life observation / body weight / body weight gain + reproductive / reproductive performance / reproductive performance other…
[27] = systemic / clinical chemistry / calcium / calcium
[28] = group: developmental, developmental / developmental malformation / bone / full supernumerary + developmental / developmental malformation / general / crown-rump …
[29] = group: maternal, systemic / in life observation / body weight / body weight gain + systemic / in life observation / clinical signs / body surface staining + …
[30] = group: parental, systemic / organ weight / liver / absolute + systemic / organ weight / liver / relative to body weight + systemic / pathology microscopic / …
[31] = group: reproductive, reproductive / reproductive performance / gestational length / gestational length
[32] = systemic / organ weight / adrenal gland / nos + systemic / organ weight / pituitary gland / nos + systemic / in life observation / clinical …
[33] = systemic / clinical chemistry / alanine aminotransferase (alt/sgpt) / alanine aminotransferase (alt/sgpt) + systemic / clinical chemistry / …

With CC[C@H](C)[C@H]1O[C@]2(C=C[C@@H]1C)C[C@@H]1C[C@@H](C/C=C(\C)[C@@H](O[C@H]3C[C@H](OC)[C@@H](O[C@H]4C[C@H](OC)[C@@H](NC)[C@H](C)O4)[C@H](C)O3)[C@@H](C)/C=C/C=C3\CO[C@@H]4[C@H](O)C(C)=C[C@@H](C(=O)O1)[C@]34O)O2.O=C(O)c1ccccc1 [Emamectin benzoate] the LEL (rat [1]; [14]) was 8 mg/kg/day, the LOAEL (rat [1]; [14]) was 8 mg/kg/day and the NEL (rat [1]; [14]) was 4 mg/kg/day. For the same molecule, the NOAEL (rat [1]; [14]) was 4 mg/kg/day, the LEL (rat [1]; [15]) was 4 mg/kg/day and the LOAEL (rat [1]; [15]) was 4 mg/kg/day. It also gave an NEL (rat [1]; [16]) of 2 mg/kg/day, an NOAEL (rat [1]; [16]) of 2 mg/kg/day and an NEL (rat [2]; systemic / in life observation / body weight / body weight + systemic / in life observation / clinical signs / fur (altered appearance) + …) of 1 mg/kg/day. For the same molecule, the LEL (rat [2]; [17]) was 2.5 mg/kg/day, the LOAEL (rat [2]; [17]) was 2.5 mg/kg/day and the NOAEL (rat [2]; [17]) was 1 mg/kg/day. For the same molecule, the LOAEL (rat [3]; [18]) was 6.7 mg/kg/day, the NOAEL (rat [3]; [18]) was 2.5 mg/kg/day and the LEL (rat [3]; systemic / pathology microscopic / eye / vacuolization) was 2.5 mg/kg/day. For the same molecule, the NEL (rat [3]; systemic / pathology microscopic / eye / vacuolization + systemic / in life observation / body weight / body weight + systemic / in life …) was 0.5 mg/kg/day, the NEL (dog [4]; [19]) was 0.25 mg/kg/day and the NOAEL (dog [4]; [19]) was 0.25 mg/kg/day. For the same molecule, the LEL (dog [4]; [20]) was 0.5 mg/kg/day, the LOAEL (dog [4]; [20]) was 0.5 mg/kg/day and the NEL (rat [5]; systemic / clinical chemistry / triglycerides / triglycerides + systemic / in life observation / body weight / body weight + systemic / …) was 0.25 mg/kg/day. For the same molecule, the LOAEL (rat [5]; [21]) was 2.51 mg/kg/day, the NOAEL (rat [5]; [21]) was 1.01 mg/kg/day and the LEL (rat [5]; systemic / pathology microscopic / skin / fibroma + systemic / pathology gross / skin / nodule(s) + systemic / clinical chemistry / …) was 1.01 mg/kg/day. It also gave an LEL (dog [6]) of 0.5 mg/kg/day, an LOAEL (dog [6]) of 0.5 mg/kg/day and an NEL (dog [6]) of 0.25 mg/kg/day. The NOAEL (dog [6]) was 0.25 mg/kg/day, the LEL (rat [7]; [15]) was 1.8 mg/kg/day and the LOAEL (rat [7]; [15]) was 1.8 mg/kg/day. It also gave an NEL (rat [7]; [15]) of 0.6 mg/kg/day, an NOAEL (rat [7]; [15]) of 0.6 mg/kg/day and an LOAEL (rat [7]; [22]) of 1.8 mg/kg/day. The NEL (rat [7]; [22]) was 0.6 mg/kg/day, the NOAEL (rat [7]; [22]) was 0.6 mg/kg/day and the LEL (rat [7]; group: offspring, developmental / developmental malformation / limb / [other] + systemic / in life observation / clinical signs / tremors + systemic / in life…) was 1.8 mg/kg/day. The LOAEL (rat [7]; group: parental, systemic / pathology microscopic / brain / degeneration + systemic / pathology microscopic / spinal cord / degeneration) was 3.6 mg/kg/day, the LEL (rat [7]; [23]) was 3.6 mg/kg/day and the NEL (rat [7]; [23]) was 1.8 mg/kg/day. For the same molecule, the NOAEL (rat [7]; [23]) was 1.8 mg/kg/day, the LEL (rat [7]; [24]) was 3.6 mg/kg/day and the LOAEL (rat [7]; [24]) was 3.6 mg/kg/day. The NEL (rat [7]; [24]) was 1.8 mg/kg/day and the NOAEL (rat [7]; [24]) was 1.8 mg/kg/day.

Molecule FC(F)C(F)(F)OCC(Cn1cncn1)c1ccc(Cl)cc1Cl (stereo not drawn) [Tetraconazole] has an LEL (rat [8]; [25]) of 100 mg/kg/day, an LOAEL (rat [8]; [25]) of 100 mg/kg/day and an NEL (rat [8]; [25]) of 30 mg/kg/day. For the same molecule, the NOAEL (rat [8]; [25]) was 30 mg/kg/day, the LOAEL (rat [8]; [15]) was 100 mg/kg/day and the LEL (rat [8]; [26]) was 100 mg/kg/day. The NEL (rat [8]; [26]) was 30 mg/kg/day, the NOAEL (rat [8]; [26]) was 30 mg/kg/day and the LEL (rat [9]; [27]) was 0.7 mg/kg/day. The NEL (rat [9]; [27]) was < 0.7 mg/kg/day, the NOAEL (rat [9]; systemic / clinical chemistry / calcium / calcium + systemic / in life observation / body weight / body weight gain + systemic / organ …) was 4.1 mg/kg/day and the LOAEL (rat [9]; systemic / in life observation / body weight / body weight gain + systemic / organ weight / liver / relative to body weight + systemic / …) was 23.9 mg/kg/day. For the same molecule, the LEL (dog [10]) was 2.95 mg/kg/day, the LOAEL (dog [10]) was 2.95 mg/kg/day and the NEL (dog [10]) was 0.73 mg/kg/day. For the same molecule, the NOAEL (dog [10]) was 0.73 mg/kg/day, the LEL (rat [11]; [28]) was 100 mg/kg/day and the LOAEL (rat [11]; [28]) was 100 mg/kg/day. For the same molecule, the NEL (rat [11]; [28]) was 22.5 mg/kg/day, the NOAEL (rat [11]; [28]) was 22.5 mg/kg/day and the LEL (rat [11]; [29]) was 22.5 mg/kg/day. For the same molecule, the LOAEL (rat [11]; [29]) was > 100 mg/kg/day, the NEL (rat [11]; [29]) was 5 mg/kg/day and the NOAEL (rat [11]; [29]) was ≥ 100 mg/kg/day. For the same molecule, the LOAEL (rat [12]; group: offspring, systemic / in life observation / body weight / offspring (pup) weight + systemic / organ weight / liver / relative to body weight) was 35.5 mg/kg/day, the NOAEL (rat [12]; group: offspring, systemic / in life observation / body weight / offspring (pup) weight + systemic / organ weight / liver / relative to body weight + systemic…) was 4.9 mg/kg/day and the LEL (rat [12]; group: offspring, systemic / organ weight / liver / relative to body weight) was 5.9 mg/kg/day. The NEL (rat [12]; group: offspring, systemic / organ weight / liver / relative to body weight + systemic / in life observation / body weight / offspring (pup) weight + systemic…) was 0.8 mg/kg/day, the LOAEL (rat [12]; [30]) was 35.5 mg/kg/day and the NOAEL (rat [12]; [30]) was 4.9 mg/kg/day. For the same molecule, the LEL (rat [12]; group: parental, systemic / organ weight / liver / relative to body weight) was 6 mg/kg/day, the NEL (rat [12]; group: parental, systemic / organ weight / liver / relative to body weight + systemic / in life observation / body weight / body weight gain + systemic / in …) was 0.8 mg/kg/day and the LEL (rat [12]; [31]) was 5.9 mg/kg/day. It also gave an LOAEL (rat [12]; [31]) of 5.9 mg/kg/day, an NEL (rat [12]; [31]) of 0.8 mg/kg/day and an NOAEL (rat [12]; [31]) of 0.8 mg/kg/day. The LEL (rat [13]; systemic / clinical chemistry / alanine aminotransferase (alt/sgpt) / alanine aminotransferase (alt/sgpt)) was 3.4 mg/kg/day, the LOAEL (rat [13]; [32]) was 27.7 mg/kg/day and the NEL (rat [13]; [32]) was 0.4 mg/kg/day. The NOAEL (rat [13]; [32]) was 3.4 mg/kg/day, the LOAEL (mouse; [33]) was 20 mg/kg/day and the NOAEL (mouse; [33]) was 4 mg/kg/day. For the same molecule, the LEL (mouse; systemic / pathology microscopic / liver / hypertrophy + systemic / pathology microscopic / liver / degeneration) was 16 mg/kg/day and the NEL (mouse; systemic / pathology microscopic / liver / hypertrophy + systemic / pathology microscopic / liver / degeneration + systemic / clinical …) was 4 mg/kg/day.
